What all share (test): relative viability (nuclei count vs DMSO), 5 days (fraction); higher = more cells survive
Compound in the experiment “Ponatinib + Pemetrexed”: Cc1ccc(C(=O)Nc2ccc(CN3CCN(C)CC3)c(C(F)(F)F)c2)cc1C#Cc1cnc2cccnn12 [Ponatinib] + Nc1nc2[nH]cc(CCc3ccc(C(=O)N[C@@H](CCC(=O)O)C(=O)O)cc3)c2c(=O)[nH]1 [Pemetrexed] (partner 0.2 µM)
An outline of the steps: (§1)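 Cells from lung cancer lines were seeded into 1536-well plates and, one day later, dosed by pin tool. Treatments were either a single drug or a fixed dose of an anchor drug with five library-drug doses (not always all listed) in √10 steps. After 5 days, nuclei were stained in a one-step fixation (final 0.05% Triton X-100, 1% formaldehyde, 1 ug/ml Hoechst) and counted on 4× images, and relative viability is the treated-to-vehicle nuclei ratio, as the median of duplicate plates.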

Compound in the experiment “Pazopanib + Vorinostat”: Cc1ccc(Nc2nccc(N(C)c3ccc4c(C)n(C)nc4c3)n2)cc1S(N)(=O)=O [Pazopanib] + O=C(CCCCCCC(=O)Nc1ccccc1)NO [Vorinostat] (partner 1 µM)
In short, it runs like this: as §1

Compound in the experiment “Pazopanib + Alpelisib”: Cc1ccc(Nc2nccc(N(C)c3ccc4c(C)n(C)nc4c3)n2)cc1S(N)(=O)=O [Pazopanib] + Cc1nc(NC(=O)N2CCC[C@H]2C(N)=O)sc1-c1ccnc(C(C)(C)C(F)(F)F)c1 [Alpelisib] (partner 2 µM)
In short, it runs like this: as §1

Compound in the experiment “Ponatinib + Crizotinib”: Cc1ccc(C(=O)Nc2ccc(CN3CCN(C)CC3)c(C(F)(F)F)c2)cc1C#Cc1cnc2cccnn12 [Ponatinib] + C[C@@H](Oc1cc(-c2cnn(C3CCNCC3)c2)cnc1N)c1c(Cl)ccc(F)c1Cl [Crizotinib] (partner 1 µM)
An outline of the steps: as §1

In the case of UMC-11, the relative viability in the experiment with Ponatinib + Pemetrexed (first compound 0.002 µM) turned out to be 0.794; with Ponatinib + Pemetrexed (first compound 0.006325 µM), 0.821; with Ponatinib + Pemetrexed (first compound 0.06325 µM), 0.862; in the experiment with Ponatinib + Pemetrexed (first compound 0.2 µM), 0.685; with Pazopanib + Vorinostat (first compound 0.01 µM) it was 0.353; in the experiment with Pazopanib + Vorinostat (first compound 0.03162 µM) it was 0.306. Besides, the relative viability in the experiment with Pazopanib + Vorinostat (first compound 0.1 µM) came to 0.368; with Pazopanib + Vorinostat (first compound 0.3162 µM), 0.371; with Pazopanib + Vorinostat (first compound 1 µM), 0.446; with Pazopanib + Alpelisib (first compound 0.01 µM) it was 1.02; with Pazopanib + Alpelisib (first compound 0.03162 µM), 1.05; with Pazopanib + Alpelisib (first compound 0.1 µM) it was 0.804. Also, the relative viability in the experiment with Pazopanib + Alpelisib (first compound 0.3162 µM) was found to be 0.948; in the experiment with Pazopanib + Alpelisib (first compound 1 µM), 1.12; in the experiment with Ponatinib + Crizotinib (first compound 0.002 µM) it was 0.678; with Ponatinib + Crizotinib (first compound 0.006325 µM) it was 0.603; in the experiment with Ponatinib + Crizotinib (first compound 0.06325 µM), 0.786; in the experiment with Ponatinib + Crizotinib (first compound 0.2 µM) it was 0.612.

Values taken from the supplement of paper PMC10307832.
